Data published in publication PMC9127750, “Structure-based design of CDC42 effector interaction inhibitors for the treatment of cancer” (Cell reports, 2022).

Tested on: WM3248 melanoma cells, 486 antibodies
Assay: Reverse phase protein arrays (RPPA);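 on RPPA ACC1.R.C: ratio of treated to vehicle (0 µM) normalized linear protein signal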;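 on RPPA AMPK.a2 pS345.R.V: ratio of treated to vehicle (0 µM) normalized linear protein signal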;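 on RPPA AMPKa pT172.R.C: ratio of treated to vehicle (0 µM) normalized linear protein signal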;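 on RPPA ASNS.R.V: ratio of treated to vehicle (0 µM) normalized linear protein signal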;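 on RPPA AceCS1.R.V: ratio of treated to vehicle (0 µM) normalized linear protein signal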;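 on RPPA Akt1.R.V: ratio of treated to vehicle (0 µM) normalized linear protein signal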;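 on RPPA Atg5.R.C: ratio of treated to vehicle (0 µM) normalized linear protein signal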;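 on RPPA Bim.R.V: ratio of treated to vehicle (0 µM) normalized linear protein signal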
Format: cell-based, Human
Conditions: 20 uM
Excerpt: Pellets were snap frozen in liquid nitrogen and shipped to MD Anderson Cancer Center core RPPA facility for RPPA analysis (Table S5). Three biological replicates for each sample were generated.
Nomenclatures on the RPPA heatmaps: name_of_antibody.species_of_antibody.status_of_antibody. V - antibody validated; C - validation of antibody in progress; Q - antibody nonspecific; E – under evaluation; antibodies raised in M - mouse, G - goat, R - rabbit, or T - rat.

In the case of `CN(C)c1cccc(Nc2cc(-c3ccccc3)nc(C3CCNCC3)n2)c1` [ARN22089, N1,N1-dimethyl-N3-(6-phenyl-2-(piperidin-4-yl)pyrimidin-4-yl)benzene-1,3-diamine], the “RPPA p38.a.M.V Average” value is reported as 0.905, the “RPPA p44.42.MAPK.R.V Average” value is reported as 1.030 and the “RPPA p53.R.C Average” value is reported as 1.157. The “RPPA p70.S6K1.R.V Average” value was 1.027, the “RPPA p70.S6K_pT389.R.V Average” value was 0.996 and the “RPPA p90RSK_pT573.R.C Average” value was 1.014. For the same compound, the “RPPA A.Raf.R.V” value (20W1) was 1.011, the “RPPA ACC1.R.C” value (20W1) was 0.890 and the “RPPA ACLY_pS455.R.V” value (20W1) was 1.224. The “RPPA ACSL1.R.V” value (20W1) was 0.955, the “RPPA ACVRL1.R.C” value (20W1) was 0.972 and the “RPPA ADAR1.M.V” value (20W1) was 1.307. The “RPPA ALKBH5.R.V” value (20W1) was 0.885, the “RPPA AMPK.a2_pS345.R.V” value (20W1) was 1.081 and the “RPPA AMPKa.R.C” value (20W1) was 1.032. For the same compound, the “RPPA AMPKa_pT172.R.C” value (20W1) was 3.755, the “RPPA AR.R.V” value (20W1) was 0.874 and the “RPPA ARID1A.R.C” value (20W1) was 1.514. For the same compound, the “RPPA ASNS.R.V” value (20W1) was 0.742, the “RPPA ATM.R.V” value (20W1) was 1.024 and the “RPPA ATM_pS1981.R.V” value (20W1) was 1.111. For the same compound, the “RPPA ATP5A.M.C” value (20W1) was 1.018, the “RPPA ATP5H.R.V” value (20W1) was 1.117 and the “RPPA ATR.R.V” value (20W1) was 1.005. For the same compound, the “RPPA ATRX.R.C” value (20W1) was 1.357, the “RPPA ATR_pS428.R.C” value (20W1) was 1.054 and the “RPPA AceCS1.R.V” value (20W1) was 0.907. For the same compound, the “RPPA Akt1.R.V” value (20W1) was 0.811, the “RPPA Akt1_pS473.R.V” value (20W1) was 1.162 and the “RPPA Akt2.R.V” value (20W1) was 0.873. For the same compound, the “RPPA Akt.R.V” value (20W1) was 0.913, the “RPPA Akt_pS473.R.V” value (20W1) was 0.795 and the “RPPA Akt_pT308.R.V” value (20W1) was 0.845. For the same compound, the “RPPA Ambra1_pS52.R.C” value (20W1) was 1.101, the “RPPA Annexin.I.M.V” value (20W1) was 0.972 and the “RPPA Atg3.R.V” value (20W1) was 0.914. The “RPPA Atg4B.R.C” value (20W1) was 0.881, the “RPPA Atg5.R.C” value (20W1) was 0.779 and the “RPPA Atg7.R.V” value (20W1) was 0.813. The “RPPA Aurora.A.R.C” value (20W1) was 0.656, the “RPPA Aurora.ABC_pT288_pT232_pT198.R.C” value (20W1) was 0.959 and the “RPPA Aurora.B.R.V” value (20W1) was 1.341. The “RPPA Axl.R.V” value (20W1) was 0.908, the “RPPA B7.H3.R.C” value (20W1) was 0.771 and the “RPPA B7.H4.R.C” value (20W1) was 1.034. For the same compound, the “RPPA B.Raf.R.C” value (20W1) was 0.907, the “RPPA B.Raf_pS445.R.V” value (20W1) was 0.934 and the “RPPA BAP1.M.V” value (20W1) was 0.877. The “RPPA BCL2A1.R.V” value (20W1) was 0.987, the “RPPA BMK1.Erk5_pT218_Y220.R.V” value (20W1) was 0.909 and the “RPPA BRCA1.M.C” value (20W1) was 1.231. The “RPPA BRD4.R.V” value (20W1) was 1.228, the “RPPA Bad_pS112.R.V” value (20W1) was 1.119 and the “RPPA Bak.R.C” value (20W1) was 1.000. For the same compound, the “RPPA Bax.R.V” value (20W1) was 0.927, the “RPPA Bcl2.R.C” value (20W1) was 1.064 and the “RPPA Bcl.xL.R.V” value (20W1) was 1.008. The “RPPA Beclin.R.C” value (20W1) was 0.873, the “RPPA BiP.GRP78.M.C” value (20W1) was 0.914 and the “RPPA Bid.R.C” value (20W1) was 0.954. The “RPPA Bim.R.V” value (20W1) was 1.054, the “RPPA X4E.BP1.R.V” value (20W1) was 1.323 and the “RPPA X4E.BP1_pS65.R.V” value (20W1) was 0.718. The “RPPA X4E.BP1_pT37_T46.R.V” value (20W1) was 0.651, the “RPPA X14.3.3.zeta.R.V” value (20W1) was 0.801 and the “RPPA X14.3.3βR.V” value (20W1) was 1.140. For the same compound, the “RPPA X14.3.3εM.C” value (20W1) was 0.864, the “RPPA b.Actin.R.C” value (20W1) was 1.078 and the “RPPA b.Catenin.R.V” value (20W1) was 0.844. For the same compound, the “RPPA b.Catenin_pT41_S45.R.V” value (20W1) was 1.120, the “RPPA c.Abl.R.V” value (20W1) was 1.161 and the “RPPA c.IAP2.R.C” value (20W1) was 1.080. For the same compound, the “RPPA A.Raf.R.V” value (20W3) was 0.992, the “RPPA A.Raf_pS299.R.C” value (20W3) was 0.987 and the “RPPA ACC1.R.C” value (20W3) was 0.779. For the same compound, the “RPPA ACC_pS79.R.V” value (20W3) was 0.983, the “RPPA ACLY_pS455.R.V” value (20W3) was 0.970 and the “RPPA ACSL1.R.V” value (20W3) was 0.853. For the same compound, the “RPPA ACVRL1.R.C” value (20W3) was 0.984, the “RPPA ALKBH5.R.V” value (20W3) was 0.991 and the “RPPA AMPK.a2_pS345.R.V” value (20W3) was 1.134. The “RPPA AMPKa.R.C” value (20W3) was 1.122, the “RPPA AMPKa_pT172.R.C” value (20W3) was 2.117 and the “RPPA AR.R.V” value (20W3) was 1.261. The “RPPA ARID1A.R.C” value (20W3) was 1.115, the “RPPA ASNS.R.V” value (20W3) was 1.296 and the “RPPA ATM.R.V” value (20W3) was 0.991. The “RPPA ATM_pS1981.R.V” value (20W3) was 0.989, the “RPPA ATP5A.M.C” value (20W3) was 0.955 and the “RPPA ATP5H.R.V” value (20W3) was 0.967. For the same compound, the “RPPA ATR.R.V” value (20W3) was 0.989, the “RPPA ATR_pS428.R.C” value (20W3) was 1.254 and the “RPPA AceCS1.R.V” value (20W3) was 0.994. For the same compound, the “RPPA Akt1.R.V” value (20W3) was 1.129, the “RPPA Akt1_pS473.R.V” value (20W3) was 1.135 and the “RPPA Akt2.R.V” value (20W3) was 1.035. The “RPPA Akt2_pS474.R.C” value (20W3) was 1.166, the “RPPA Akt.R.V” value (20W3) was 0.976 and the “RPPA Akt_pS473.R.V” value (20W3) was 1.265. The “RPPA Ambra1_pS52.R.C” value (20W3) was 0.996, the “RPPA Annexin.I.M.V” value (20W3) was 0.990 and the “RPPA Annexin.VII.M.V” value (20W3) was 0.885. The “RPPA Atg3.R.V” value (20W3) was 1.076, the “RPPA Atg4B.R.C” value (20W3) was 1.076 and the “RPPA Atg5.R.C” value (20W3) was 0.960. The “RPPA Aurora.A.R.C” value (20W3) was 0.983, the “RPPA Aurora.ABC_pT288_pT232_pT198.R.C” value (20W3) was 1.060 and the “RPPA Axl.R.V” value (20W3) was 1.478. The “RPPA B7.H3.R.C” value (20W3) was 1.058, the “RPPA B7.H4.R.C” value (20W3) was 1.107 and the “RPPA B.Raf_pS445.R.V” value (20W3) was 1.167. The “RPPA BAP1.M.V” value (20W3) was 0.964, the “RPPA BMK1.Erk5_pT218_Y220.R.V” value (20W3) was 0.926 and the “RPPA BRCA1.M.C” value (20W3) was 0.977. The “RPPA BRD4.R.V” value (20W3) was 1.002, the “RPPA Bad_pS112.R.V” value (20W3) was 1.163 and the “RPPA Bax.R.V” value (20W3) was 1.054. The “RPPA Bcl2.R.C” value (20W3) was 0.975, the “RPPA Bcl.xL.R.V” value (20W3) was 1.190 and the “RPPA Beclin.R.C” value (20W3) was 0.948. For the same compound, the “RPPA BiP.GRP78.M.C” value (20W3) was 1.003, the “RPPA Bid.R.C” value (20W3) was 0.943 and the “RPPA Bim.R.V” value (20W3) was 0.917. For the same compound, the “RPPA X4E.BP1.R.V” value (20W3) was 1.550, the “RPPA X4E.BP1_pS65.R.V” value (20W3) was 1.024 and the “RPPA X4E.BP1_pT37_T46.R.V” value (20W3) was 1.034. For the same compound, the “RPPA X14.3.3βR.V” value (20W3) was 0.902, the “RPPA X14.3.3εM.C” value (20W3) was 0.973 and the “RPPA b.Actin.R.C” value (20W3) was 0.977. The “RPPA b.Catenin.R.V” value (20W3) was 1.021, the “RPPA b.Catenin_pT41_S45.R.V” value (20W3) was 1.082 and the “RPPA c.Abl.R.V” value (20W3) was 1.234. For the same compound, the “RPPA c.Abl_pY412.R.C” value (20W3) was 1.114, the “C.Raf.R.C RPPA level” value (Average) was 1.061 and the “CA9.R.C RPPA level” value (Average) was 0.925. For the same compound, the “CD2.M.C RPPA level” value (Average) was 0.936, the “CD4.R.V RPPA level” value (Average) was 1.006 and the “CD5.M.C RPPA level” value (Average) was 0.966. The “CD20.R.C RPPA level” value (Average) was 1.099, the “CD31.M.V RPPA level” value (Average) was 0.988 and the “CD38.R.C RPPA level” value (Average) was 1.131. For the same compound, the “CD44.R.C RPPA level” value (Average) was 0.982, the “CD45.M.V RPPA level” value (Average) was 0.957 and the “CD49b.M.V RPPA level” value (Average) was 0.989. The “CD68.M.C RPPA level” value (Average) was 0.999, the “CD74.M.V RPPA level” value (Average) was 0.998 and the “CD134.R.V RPPA level” value (Average) was 0.994. The “CD171.M.V RPPA level” value (Average) was 0.762, the “CDK1_pT14.R.C RPPA level” value (Average) was 1.056 and the “CDK9.R.V RPPA level” value (Average) was 0.964. For the same compound, the “CDKN2A.R.C RPPA level” value (Average) was 1.024, the “CDT1.R.V RPPA level” value (Average) was 0.971 and the “CENP.A.R.V RPPA level” value (Average) was 1.548. The “CHD1L.R.V RPPA level” value (Average) was 0.954, the “CIITA.R.C RPPA level” value (Average) was 1.002 and the “COG3.R.V RPPA level” value (Average) was 1.098. For the same compound, the “CRABP1.R.C RPPA level” value (Average) was 1.025, the “CRABP2.R.V RPPA level” value (Average) was 0.977 and the “CREB_pS133.R.C RPPA level” value (Average) was 1.270. For the same compound, the “CSK.R.C RPPA level” value (Average) was 0.987, the “Calnexin.R.V RPPA level” value (Average) was 0.956 and the “Caspase.7.cleaved..R.C RPPA level” value (Average) was 0.982. The “Caspase.8.M.Q RPPA level” value (Average) was 0.929.
